Results: US9115064B2, “N-hydroxylsulfonamide derivatives as new physiologically useful nitroxyl donors” (The Johns Hopkins University, priority 2007, dated 2015)

Assay: HNO production via N2O quantification (GC headspace analysis, Angeli's salt as benchmark)
Type: physicochemical
Conditions: pH 7.4 in PBS buffer at 37° C.; for Nitrous oxide evolved as % of Angelis salt: relative to Angeli's salt

Row | SMILES | % moles N2O/moles of sample | Nitrous oxide evolved as % of Angelis salt
1 | [Na+].[Na+].[O-][N+]([O-])=NO [Angeli's Salt, sodium dioxotrinitrate, reference compound] | 70.5% | 100%
2 | COC(=O)c1ccccc1S(=O)(=O)NO [Compound 1, 2-Hydroxysulfamoyl-benzoic acid methyl ester] | 30.5% | 43%
3 | O=C(O)c1cccc(S(=O)(=O)NO)c1 [Compound 2, 3-Hydroxysulfamoyl-benzoic acid] | 19% | 27%
4 | O=C(O)c1ccc(Cl)c(S(=O)(=O)NO)c1 [Compound 3, 4-Chloro-3-hydroxysulfamoyl-benzoic acid] | 81.5% | 116%
5 | O=C(O)c1ccc(Br)c(S(=O)(=O)NO)c1 [Compound 4, 4-Bromo-3-hydroxysulfamoyl-benzoic acid] | 82% | 117%
6 | O=C(c1ccc(Br)c(S(=O)(=O)NO)c1)N1CCOCC1 [Compound 5, -Bromo-N-hydroxy-5-(morpholine-4-carbonyl)-benzenesulfonamide] | 80.5% | 115%
7 | CN(C)C(=O)c1ccc(Br)c(S(=O)(=O)NO)c1 [Compound 6, 4-Bromo-3-(hydroxysulfamoyl)-N,N-dimethylbenzamide] | 81% | 116%
8 | CN(C)C(=O)c1ccc(Cl)c(S(=O)(=O)NO)c1 [Compound 7, 4-Chloro-3-(hydroxysulfamoyl)-N,N-dimethylbenzamide] | 85% | 122%
9 | O=S(=O)(NO)c1ccccc1S(=O)(=O)N1CCOCC1 [Compound 8, N-Hydroxy-2-(morpholin-4-ylsulfonyl)benzene sulfonamide] | 86% | 126%
10 | O=C(OCCN1CCOCC1)c1ccc(Cl)c(S(=O)(=O)NO)c1 [Compound 9, -(Morpholin-4-yl)ethyl 4-chloro-3-(hydroxysulfamoyl)benzoate] | 65% | 93%
11 | O=C(NCCN1CCOCC1)c1cc(Br)c(S(=O)(=O)NO)s1 [Compound 97, 4-Bromo-5-(hydroxysulfamoyl)-N-[2-(morpholin-4-yl)ethyl]thiophene-2-carboxamide] | 92% | 131%
12 | O=C(c1cc(Br)c(S(=O)(=O)NO)s1)N1CCOCC1 [Compound 98, 3-Bromo-N-hydroxy-5-(morpholin-4-ylcarbonyl)thiophene-2-sulfonamide] | 81% | 116%
